Tests used:
sunflower plants = assay: Sunflower field chlorophyll content and seed production after seed treatment; format: in vivo; details: seed treatment 1 g/l/Kg, natural stress
Procedure: In order to determine the drought or drought stress tolerance after seed treatments with TMAO di-hydrate and germination in the presence of TMAO di-hydrate, barley “Hispanic” seeds, corn “FAO700” seeds, and “Sambro” sunflower seeds were surface sterilized for 3 minutes in ethanol 70%, then rinsed twice and finally included in a pre-treatment solution of 1 g/L TMAO di-hydrate solution (or just water) under shaking for 3 hours at a dose of 1 litre per Kg of seeds. Then, the seeds were sown in randomized plots of 10 sqm in a surface of 2.000 sqm. Chlorophyll content was measured 1 month before harvest. In corn irrigation was applied in half of the plots while the other half only received an initial establishment watering. The barley plots received 200 l of rain per m^2 through the growing season. Some of the plots received a second spray treatment with 1 g/liter of TMAO. […] At least 3 independent plants were treated per experiment.
TMAO di-hydrate applied exogenously which increases the endogenous content of TMAO as if the plants were overexpressing an FMO protein at least 4 times increases plant production in sunflower plants grown in the field without external irrigation. ‘Sambra” sunflower seeds were sown, grown and treated as described above. Seed treatment (1 g/l/Kg TMAO) increased plant chlorophyll content and seed production. […] Both chlorophyll and weight differences between control and TMAO groups are statistically significant. Relative chlorophyll content values are obtained by optical absorbance in two different wavebands: 653 nm (chlorophyll) and 931 nm (Near Infra-Red).

leek plants = assay: Yield production without drought stress, leek; format: in vivo; details: 1 g/l spray every 4 weeks for 3 months, no drought stress
Procedure: (§1) In order to determine the plant yield productivity under normal conditions, ‘Sabrina’, ‘Candonga’ and ‘Fortuna’ strawberry varieties, leek, lettuce, “Iceberg” variety, broccoli “Parthenon” variety, celery or kohlrabi plants, were grown under standard production conditions and 120 plants of each variety per treatment (where the treatment was a control comprising standard watering or 1 g/L of TMAO di-hydrate spray every four weeks) were analyzed. Plants were located in four (4) different positions for each group of 30 plants from the same treatment. Fruits, leaves or roots were harvested from individual plants and total weight was determined for each plant.
(§2) Root or leaves yield was determined in the plants treated with 1 g/l of TMAO di-hydrate or water as described above in order to evaluate the trade-off costs of the treatment with no drought stress.

kohlrabi plants = assay: Yield production without drought stress, kohlrabi; format: in vivo; details: 1 g/l spray every 4 weeks for 3 months, no drought stress
Procedure: as §1, §2

[1] = TMAO accumulation in pepper leaves after spray (NMR); details: 1 g/l spray
Procedure: TMAO content in plants was determined by harvesting three leaves per treatment and freezing them in liquid nitrogen before the Nuclear Magnetic Resonance spectroscopy (NMR) determination. At least three independent plants were treated per experiment. TMAO content in plant extracts was quantified by NMR spectrometry using a Bruker Advance DRX 500 MHz spectrometer equipped with a 5 mm inverse triple resonance probe head. A known concentration of [3-(trimethylsilyl) propionic-2,2,3,3-d4 acid sod. salt, (TSP-d4)] was used as internal reference. All experiments were conducted at 298K and the data was acquired and processed using the same parameters. Spectra processing was performed on PC station using Topspin 2.0 software (Bruker).
‘Murano’ pepper seeds and ‘Bomi’ barley seeds were sown and grown as described above. Control plants (six weeks old) were sprayed with water and pepper treated plants were sprayed with 1 g/l of TMAO di-hydrate while barley plants were sprayed with 1 g/l of TMAO di-hydrate formulated with 0.1% of C8-C10 Alkylpolysaccharide. Leaves were harvested and TMAO was determined by NMR. The percentage of TMAO increase compared to untreated controls was determined for each time point.

celery plants = assay: Yield production without drought stress, celery; format: in vivo; details: 1 g/l spray every 4 weeks for 3 months, no drought stress
Procedure: as §1, §2

garlic plants = assay: Yield production without drought stress, garlic; format: in vivo; details: 1 g/l spray every 4 weeks for 3 months, no drought stress
Procedure: as §2

lettuce plants (Iceberg) = assay: Yield production without drought stress, lettuce; format: in vivo; details: 1 g/l spray every 4 weeks for 3 months, no drought stress
Procedure: as §1, §2

For C[N+](C)(C)[O-].O.O [TMAO di-hydrate, trimethylamine N-oxide di-hydrate], the “% GAIN/LOSS RESPECT TO THE CONTROL, chlorophyll content” value (sunflower plants) was 30%, the “% GAIN/LOSS RESPECT TO THE CONTROL, weight of seeds from 1 plant” value (sunflower plants) was 77.7% and the “C[…] (OD663/OD931, AVERAGE VALUE)” value (sunflower plants) was 21.17 ± 0.54. For the same molecule, the “WEIGHT (GRAMS) OF SEEDS FROM 1 PLANT, AVERAGE VALUE” (sunflower plants) was 161.3 ± 13.1 GRAMS, the “Yield production, % Control” value (leek plants) was 102% and the “Yield production, % Control” value (kohlrabi plants) was 103%. The “TMAO % Control” value ([1]; 1 day post spray) was 529%, the “TMAO (μM) in leaves” value ([1]; 1 day post spray) was 1755.2 µM and the “TMAO % Control” value ([1]; 10 days post spray) was 373%. The “TMAO (μM) in leaves” value ([1]; 10 days post spray) was 1237.6 µM, the “TMAO % Control” value ([1]; 20 days post spray) was 286% and the “TMAO (μM) in leaves” value ([1]; 20 days post spray) was 948.9 µM. For the same molecule, the “TMAO % Control” value ([1]; 30 days post spray) was 135%, the “TMAO (μM) in leaves” value ([1]; 30 days post spray) was 449.2 µM and the “TMAO % Control” value ([1]; 40 days post spray) was 213%. For the same molecule, the “TMAO (μM) in leaves” value ([1]; 40 days post spray) was 709.4 µM, the “Yield production, % Control” value (celery plants) was 100% and the “Yield production, % Control” value (garlic plants) was 109%. For the same molecule, the “Yield production, % Control” value (lettuce plants (Iceberg)) was 112%.
